The text below walks through data of patent EP3368527B1, “PALBOCICLIB TOSYLATE” (Egis Gyógyszergyár Zrt., priority 2015, dated 2017).

For series [1] the following is noted: for amount of "other unknown contaminants": change after 3 weeks of storage; for Known contaminant 2: RT 1.97 min; for water absorption: under various storage conditions, compared to the isethionate salt.
The conditions of series [2]: WO 2005/005426, in words; cited from earlier work.
The conditions of series [3]: low relative humidity (10% RH); cited from earlier work.
The nature of series [4]: Dynamic vapour sorption analysis (DVS): water sorption isotherms, hygroscopicity. In kind it is physicochemical. Conditions: 25 °C.
The mark [5] stands for this setting: RT 1.70 min, 3 weeks, 25 °C 90% RH.
The mark [6] stands for this setting: RT 1.70 min, 3 weeks, 40 °C 70% RH.
Setting [7] is: RT 2.56 min, 3 weeks, 25 °C 90% RH.
Setting [8] is: RT 2.56 min, 3 weeks, 40 °C 70% RH.

Read-outs that look alike come from different tables or passages of the source. Some results are limits rather than exact numbers.

On to `CC(=O)c1c(C)c2cnc(Nc3ccc(N4CCNCC4)cn3)nc2n(C2CCCC2)c1=O` [palbociclib base Form A, 6-acetyl-8-cyclopentyl-5-methyl-2-{[5-(1-piperazinyl)-2-piridinyl]amino}pyrido[2,3-d]pyrimidin-7(8H)-one], for which, in series [1] (3 weeks, 25 °C 90% RH), the “Known contaminant 1 (RT 1.85 min)” value is reported as 0.03%, the “Known contaminant 2 (RT 1.97 min)” value is 0.04%, the Total contamination amounted to 0.23% and the Total unknown contaminant turned out to be 0.16%. Further, in series [1] (3 weeks, 25 °C 90% RH), the “Unknown contaminant (RT 1.70 min)” value is on record as 0.04%, the “Unknown contaminant (RT 2.56 min)” value stood at 0.07%, the “Unknown contaminant (RT 3.04 min)” value is 0.05% and the Water content was found to be 0.42% m/m%. In addition, in series [1] (3 weeks, 40 °C 70% RH), the “Known contaminant 2 (RT 1.97 min)” value is on record as 0.05%, the Total contamination amounted to 0.17%, the Total unknown contaminant was found to be 0.13% and the “Unknown contaminant (RT 1.70 min)” value was 0.05%. Also, in series [1] (3 weeks, 40 °C 70% RH), the “Unknown contaminant (RT 2.56 min)” value was 0.04%, the “Unknown contaminant (RT 3.04 min)” value is on record as 0.04% and the Water content worked out at 0.41% m/m%. In addition, in series [1] (3 weeks, 70 °C), the “Known contaminant 1 (RT 1.85 min)” value turned out to be 0.03%, the “Known contaminant 2 (RT 1.97 min)” value is 0.05%, the Total contamination is listed as 0.23% and the Total unknown contaminant amounted to 0.15%. Moreover, in series [1] (3 weeks, 70 °C), the “Unknown contaminant (RT 1.70 min)” value turned out to be 0.04%, the “Unknown contaminant (RT 2.56 min)” value was 0.06%, the “Unknown contaminant (RT 3.04 min)” value amounted to 0.05% and the Water content is recorded as 0.39% m/m%. Also, in series [1] (Starting sample), the “Known contaminant 2 (RT 1.97 min)” value turned out to be 0.04%, the Total contamination was 0.13%, the Total unknown contaminant was found to be 0.09% and the “Unknown contaminant (RT 1.70 min)” value stood at 0.04%. In addition, in series [1] (Starting sample), the “Unknown contaminant (RT 2.56 min)” value is listed as 0.05% and the Water content is listed as 0.23% m/m%. In addition, the “amount of "other unknown contaminants"” value in series [1] (in words) was “significantly increases”.
In the case of `CC(=O)c1c(C)c2cnc(Nc3ccc(N4CCNCC4)cn3)nc2n(C2CCCC2)c1=O.Cl.Cl` [palbociclib di-HCI salt], in series [2], the water solubility entry is reported as “suitable water solubility”. Besides, in series [3], the “amount of water absorbed” value is on record as greater than 2 m/m %.
As to `CC(=O)c1c(C)c2cnc(Nc3ccc(N4CCNCC4)cn3)nc2n(C2CCCC2)c1=O.O=S(=O)(O)CCO` [palbociclib isethionate Form B], in series [1] (3 weeks, 25 °C 90% RH), the “Known contaminant 2 (RT 1.97 min)” value came out at 0.09%, the Total contamination came to 0.28%, the Total unknown contaminant was 0.19% and the “Unknown contaminant (RT 1.70 min)” value came out at 0.03%. For the same molecule, in series [1] (3 weeks, 25 °C 90% RH), the “Unknown contaminant (RT 2.56 min)” value turned out to be 0.16% and the Water content is 0.97% m/m%. Further, in series [1] (3 weeks, 40 °C 70% RH), the “Known contaminant 2 (RT 1.97 min)” value was found to be 0.10%, the Total contamination came to 0.27%, the Total unknown contaminant stood at 0.17% and the “Unknown contaminant (RT 1.70 min)” value amounted to 0.03%. In series [1] (3 weeks, 40 °C 70% RH), the “Unknown contaminant (RT 2.56 min)” value is on record as 0.14% and the Water content is recorded as 0.76% m/m%. Also, in series [1] (3 weeks, 70 °C), the “Known contaminant 2 (RT 1.97 min)” value came out at 0.09%, the Total contamination was found to be 0.28%, the Total unknown contaminant is listed as 0.19% and the “Unknown contaminant (RT 1.70 min)” value was determined as 0.03%. Further, in series [1] (3 weeks, 70 °C), the “Unknown contaminant (RT 2.56 min)” value amounted to 0.16% and the Water content was found to be 0.83% m/m%. In series [1] (Starting sample), the “Known contaminant 2 (RT 1.97 min)” value amounted to 0.09%, the Total contamination is on record as 0.29%, the Total unknown contaminant is on record as 0.20% and the “Unknown contaminant (RT 1.36 min)” value is on record as 0.03%. Further, in series [1] (Starting sample), the “Unknown contaminant (RT 1.70 min)” value was 0.03%, the “Unknown contaminant (RT 2.56 min)” value was 0.14% and the Water content is listed as 0.36% m/m%.
On to “palbociclib camsylate salt (1:1) [palbociclib camsylate (1:1) salt]”, for which the “hygroscopicity (water sorption isotherms)” value (“hygroscopicity” below) in series [4] is “does not exhibit significant hygroscopicity”.
Turning to “palbociclib citrate (1:1) monohydrate salt”, in series [4], the “hygroscopicity” value is recorded as “exhibits significant hygroscopicity”.
In the case of “palbociclib hydrogen chloride (1:1) salt Form E”, the “hygroscopicity” value in series [4] is “does not exhibit significant hygroscopicity”. In addition, the stability result in series [1] (3 weeks of storage under various forced conditions, compared to palbociclib base Form A and isethionate salt Form B, in words) is listed as “more stable than the Form A base”. The Total contamination in series [1] (3 weeks, 25 °C 90% RH) came out at 0.22%; in series [1] (3 weeks, 40 °C 70% RH), 0.19%; in series [1] (3 weeks, 70 °C) it was 0.23%; in series [1] (Starting sample), 0.20%. Also, the Total unknown contaminant turned out to be 0.16% in series [1] (3 weeks, 25 °C 90% RH); 0.13% in series [1] (3 weeks, 40 °C 70% RH); 0.17% in series [1] (3 weeks, 70 °C); 0.15% in series [1] (Starting sample). Moreover, the Water content turned out to be 0.45% m/m% in series [1] (3 weeks, 25 °C 90% RH); 0.41% m/m% in series [1] (3 weeks, 40 °C 70% RH); 0.42% m/m% in series [1] (3 weeks, 70 °C); 0.21% m/m% in series [1] (Starting sample). Further, the Unknown contaminant in series [1] (setting [5]) was found to be 0.06%; in series [1] (setting [6]), 0.06%; in series [1] (RT 1.70 min, 3 weeks, 70 °C), 0.06%; in series [1] (RT 1.70 min, Starting sample), 0.05%; in series [1] (setting [7]), 0.10%; in series [1] (setting [8]) it was 0.07%. Further, the Unknown contaminant was found to be 0.11% in series [1] (RT 2.56 min, 3 weeks, 70 °C) and 0.10% in series [1] (RT 2.56 min, Starting sample). Also, the “Known contaminant 2” value in series [1] (3 weeks, 25 °C 90% RH) is 0.06%; in series [1] (3 weeks, 40 °C 70% RH) it was 0.06%; in series [1] (3 weeks, 70 °C), 0.06%; in series [1] (Starting sample), 0.05%. Also, the “amount of "other unknown contaminants"” value in series [1] (in words) is “remains unchanged”. Further, in series [1] (in words), the water absorption entry is “significantly less water absorption”.
Regarding palbociclib maleate (Form I) (1:1) salt, the “hygroscopicity” value in series [4] was “does not exhibit significant hygroscopicity”.
Take “palbociclib maleate (Form II) (1:1) salt”: in series [4], the “hygroscopicity” value is “does not exhibit significant hygroscopicity”.
Still for that read-out and setting: the same measure for palbociclib napsylate (1:1) salt: “does not exhibit significant hygroscopicity”; for “palbociclib napsylate (1:2) dihydrate salt”: “exhibits significant hygroscopicity”; for palbociclib oxalate (1:1) salt: “does not exhibit significant hygroscopicity”.
With “palbociclib sulphate (C24H29N7O2 . ½ H2SO4 . 2 H2O) dihydrate salt”, the “hygroscopicity” value in series [4] is “exhibits significant hygroscopicity”.
In general, solubility refers to the concentration that dissolves in the medium under given conditions. On to palbociclib tosylate (1:1) salt, for which the “hygroscopicity” value in series [4] (listed as palbociclib 4-toluenesulfonic acid (1:1) salt) is “does not exhibit significant hygroscopicity”; in series [4] (listed as palbociclib tosylate salt form) it was “surprisingly low hygroscopicity”. Also, the Total contamination is 0.09% in series [1] (3 weeks, 25 °C 90% RH); 0.09% in series [1] (3 weeks, 40 °C 70% RH); 0.10% in series [1] (3 weeks, 70 °C); 0.08% in series [1] (Starting sample). Also, the Total unknown contaminant turned out to be 0.09% in series [1] (3 weeks, 25 °C 90% RH); 0.09% in series [1] (3 weeks, 40 °C 70% RH); 0.10% in series [1] (3 weeks, 70 °C); 0.08% in series [1] (Starting sample). Also, the Water content in series [1] (3 weeks, 25 °C 90% RH) amounted to 0.51% m/m%; in series [1] (3 weeks, 40 °C 70% RH), 0.49% m/m%; in series [1] (3 weeks, 70 °C) it was 0.49% m/m%; in series [1] (Starting sample) it was 0.34% m/m%. Further, the Unknown contaminant in series [1] (setting [5]) was determined as 0.04%; in series [1] (setting [6]), 0.05%; in series [1] (RT 1.70 min, 3 weeks, 70 °C), 0.05%; in series [1] (RT 1.70 min, Starting sample) it was 0.04%; in series [1] (setting [7]) it was 0.05%; in series [1] (setting [8]), 0.04%. For the same molecule, the Unknown contaminant in series [1] (RT 2.56 min, 3 weeks, 70 °C) is reported as 0.05%; in series [1] (RT 2.56 min, Starting sample), 0.04%. The “amount of "other unknown contaminants"” value in series [1] (in words) is given as “remains unchanged”. In series [1] (in words), the water absorption result was “significantly less water absorption”. In addition, the solubility (0.1 M HCl (pH=1), 37 °C, 1440 min) was found to be 20000 µg/mL; the solubility result (pH 4.5 (slightly acidic), 37 °C, compared to reference palbociclib base Form A, in words) is reported as “significantly better”; the solubility entry (pH 4.5 (slightly acidic), 37 °C, compared to reference palbociclib base Form A, in words, listed as palbociclib tosylate salt form) is “significantly better solubility”; the solubility result (pH=1, 37 °C, compared to reference palbociclib base Form A, in words) is on record as “comparable”; the solubility (pH=4.5 phosphate buffer, 37 °C, 1440 min) was 200 µg/mL; the solubility (pH=6.8 phosphate buffer, 37 °C, 1440 min) is less than 30 µg/mL.
